Data reported in patent US20090099240A1, “METHODS FOR TREATING ENERGY METABOLISM DISORDERS BY INHIBITING FATTY ACID AMIDE HYDROLASE ACTIVITY” (N.V. Organon, priority 2006, published 2009).

Columns and labels:
[1] = test system: APOE*3-Leiden transgenic (E3L) mice; assay: Organ and tissue weights in E3L mice on high cholesterol diet
Description: (§1) We assessed the effect of inhibiting FAAH activity on body weight, body fat, triglyceride levels, cholesterol levels in APOE*3-Leiden transgenic (E3L) mice, an animal model of hyperlipidemia. […] See van Vlijmen et al. (1994), J. Clin Invest., 93:1403-1410. Indeed, upon high fat and cholesterol feeding, these mice develop various stages of atherosclerotic lesions depending on plasma total cholesterol levels and resembling those found in humans. See Groot et al. (1996), Arterioscler. Thromb. Vasc. Biol., 16:926-933; Versch ren et al. (2005), Arterioscler. Thromb. Vasc Biol., 25:161-167; and Lutgens et al. (1999), Circulation; 99(2):276-283). Thus, the E3L mouse is a suitable model for the investigation of the efficacy of anti-atherosclerotic drugs.
(§2) E3L mice were fed a high cholesterol (1% w/w) diet (HC diet) for a period of four weeks. Animals were then matched based on their plasma cholesterol levels, and were divided into five groups, each of which was maintained on an HC diet.
(§3) Blood samples were collected at days 0, 14, and 28 of the treatment period. At the end of the treatment period, animals were sacrificed, and various tissues and organs were analyzed. Unless otherwise indicated, values are mean±standard deviation (SD).

[2] = test system: APOE*3-Leiden transgenic (E3L) mice; assay: Body weight in E3L mice on high cholesterol diet; type: in vivo, mouse
Description: as §1, §2

[3] = test system: APOE*3-Leiden transgenic (E3L) mice; assay: Food intake per animal per day in E3L mice; type: in vivo, mouse
Description: as §1, §2

[4] = test system: APOE*3-Leiden transgenic (E3L) mice; assay: Total plasma cholesterol in E3L mice; type: in vivo, mouse
Description: as §1, §2, §3

[5] = test system: APOE*3-Leiden transgenic (E3L) mice; assay: Plasma lipoprotein profiles (size fractionation of pooled plasma) in E3L mice; type: in vivo, mouse; settings: day 28, FIG. 1
Description: as §2
Lipoprotein profiles were determined in pooled plasma from day 28, as described in Verschuren et al. (2005), Arterioscler. Thromb. Vasc Biol., 25:161-167. An equal amount of plasma per animal was used to prepare a plasma pool for each group. Plasma lipoproteins in each plasma pool were separated by size fractionation. Typically, VLDL, IDL/LDL and HDL lipoproteins are eluted in fractions 4-8, fractions 11-16 and fractions 17-20, respectively.

[6] = test system: APOE*3-Leiden transgenic (E3L) mice; assay: Total plasma triglyceride levels in E3L mice; type: in vivo, mouse
Description: as §1, §2, §3

[7] = test system: APOE*3-Leiden transgenic (E3L) mice; assay: Plasma alanine aminotransferase (ALAT) activity in E3L mice; type: in vivo, mouse; settings: day 28
Description: as §2
Levels of plasma alanine aminotransferase (ALAT) were determined on day 28 (table 7). Plasma ALAT is a measure of hepatic stress and increases in plasma ALAT levels are often associated with liver damage. […] Thus, a reduction in plasma ALAT levels is associated with improved liver function.

[8] = test system: APOE*3-Leiden transgenic (E3L) mice; assay: Oil Red O staining of liver sections (steatosis) in E3L mice; type: in vivo, mouse
Description: as §2
In order to examine cellular stress in the liver due to lipid storage (steatosis), we stained frozen liver tissue sections with Oil Red O a fat-soluble diazo dye used to stain for lipids. Digital photomicrographs of liver cross sections were taken for each individual animal (magnification: 20 fold). […]

[9] = test system: APOE*3-Leiden transgenic (E3L) mice; assay: Lipid content of liver (TLC) in E3L mice; type: in vivo, mouse
Description: as §2
A reduction of Red Oil O staining in liver generally indicates reduced liver lipid content. We therefore quantified levels of lipids in livers from each animal, as described in Havekes et al. (1987), Biochem. J., 247:739-746; Delsing et al. (2005), J. Cardiovasc. Pharmacol., 45:53-60; and Post et al. (2004), ATVB, 24:768-774. Liver tissue homogenates were prepared. Lipids were extracted, dried under nitrogen, dissolved in chloroform, and spotted onto a channeled 20×20 cm silica gel thin layer chromatography (TLC) plate. Lipids were then separated, TLC plates were warmed up to visualize bands, and bands were quantified using an internal standard as reference.

[10] = test system: APOE*3-Leiden transgenic (E3L) mice; assay: Plasma leptin ELISA in E3L mice; type: in vivo, mouse
Description: as §2
Accordingly, we quantified plasma leptin levels after a four hour fasting period at treatment time points 0, 14, and 28 days using a mouse-specific leptin ELISA or (kit number MOB00 from R&D Systems, Minneapolis, Minn.) according to the guidelines and protocol specified by the manufacturer.

[11] = test system: APOE*3-Leiden transgenic (E3L) mice; assay: Plasma adiponectin ELISA in E3L mice; type: in vivo, mouse
Description: as §2
We determined plasma adiponectin levels after a four hour fasting period at 0, 14, 28 days, using a mouse-specific adiponectin/Acrp30 ELISA (kit number MRP300 from R&D Systems, Minneapolis, Minn.).

[12] = test system: APOE*3-Leiden transgenic (E3L) mice; assay: Plasma ketone body (D-3-hydroxybutyrate) levels in E3L mice; type: in vivo, mouse
Description: as §2
We quantified plasma D-3-hydroxybutyrate (b-HBA; ketone bodies) levels were quantified in plasma samples obtained after a 4-hour fasting period at time points t=0, t=2, and t=4 weeks using kits #2940 (b-HBA reagent set) and #2947 (b-HBA control set)) according to the guidelines and protocol specified by the manufacturer (Instruchemie, Delfzijl, The Netherlands).

[13] = E3L mice, HC diet, end of four-week treatment, mean ± SD

CCCCCCCC/C=C\CCCCCCCC(=O)NCCO [OEA, oleoylethanolamide]
Organ and Tissue Weights: Fat (gonadal fat) [1, 13]: *0.24 ± 0.06 g | Organ and Tissue Weights: Brain ([1]; mouse, in vivo): 0.44 ± 0.02 g | Organ and Tissue Weights: Heart ([1]; mouse, in vivo): 0.14 ± 0.01 g | Organ and Tissue Weights: Liver ([1]; mouse, in vivo): 0.91 ± 0.16 g | Organ and Tissue Weights: Lung ([1]; mouse, in vivo): 0.19 ± 0.02 g | gonadal fat weight, in words ([1]; relative to the oral vehicle group): significantly lower | body weights, in words ([2]; last time point (4 weeks), within group): significantly reduced | Body Weight ([2]; week 0): 22.3 ± 1.3 g | Body Weight ([2]; week 0.5): 22.5 ± 1.0 g | Body Weight ([2]; week 1): 22.6 ± 1.0 g | Body Weight ([2]; week 1.5): 21.8 ± 1.1 g | Body Weight ([2]; week 2): 21.9 ± 1.2 g | Body Weight ([2]; week 2.5): 21.9 ± 1.3 g | Body Weight ([2]; week 3): *21.6 ± 1.1 g | Body Weight ([2]; week 3.5): *21.3 ± 1.2 g | Body Weight ([2]; week 4): *21.4 ± 1.2 g | Food Intake Per Animal Per Day ([3]; interval 0-0.5 weeks): 2.5 ± 0.05 g | Food Intake Per Animal Per Day ([3]; interval 0.5-1.0 weeks): 2.3 ± 0.04 g | Food Intake Per Animal Per Day ([3]; interval 1.0-1.5 weeks): 2.4 ± 0.1 g | Food Intake Per Animal Per Day ([3]; interval 1.5-2.0 weeks): 2.4 ± 0.1 g | Food Intake Per Animal Per Day ([3]; interval 2.0-2.5 weeks): 2.3 ± 0.1 g | Food Intake Per Animal Per Day ([3]; interval 2.5-3.0 weeks): 2.3 ± 0.05 g | Food Intake Per Animal Per Day ([3]; interval 3.0-3.5 weeks): 2.3 ± 0.1 g | Food Intake Per Animal Per Day ([3]; interval 3.5-4.0 weeks): *2.0 ± 0.1 g | Food Intake Per Animal Per Day ([3]; interval run-in): 2.5 ± 0.5 g | food intake, in words ([3]; last time point): slight, but significant, decrease | Total Plasma Cholesterol ([4]; day 0): 13.9 ± 3.4 mM | Total Plasma Cholesterol ([4]; day 14): ^#16.0 ± 2.9 mM | Total Plasma Cholesterol ([4]; day 28): ^#15.8 ± 2.7 mM | total plasma cholesterol levels, in words ([4]; days 14 and 28, relative to respective control group): slightly and significantly increased | IDL/LDL particle size, in words [5]: slight shift toward larger IDL/LDL particles | VLDL fraction of plasma lipoprotein profile, in words [5]: increase | Total Plasma Triglyceride Levels ([6]; day 0): 1.5 ± 0.4 mM | Total Plasma Triglyceride Levels ([6]; day 14): 1.7 ± 0.6 mM | Total Plasma Triglyceride Levels ([6]; day 28): *1.3 ± 0.3 mM | total plasma triglyceride levels, in words ([6]; relative to respective control group): slightly decreased | Plasma Alanine Amino Transferase Activity [7]: *68.6 ± 17.6 U/L | steatotic (Oil Red O) staining in liver, in words ([8]; compared to the control vehicle group): small, but significant reduction | Oil Red O Staining in Liver, Mild-Severe (above 115 relative units) ([8]; end of four-week treatment): *36 ± 5 % of cross-sectional area | Oil Red O Staining in Liver, Severe (above 175 relative units) ([8]; end of four-week treatment): *8 ± 2 % of cross-sectional area | liver cholesterol esters (CE), in words ([9]; compared to the oral vehicle group): significantly increased | Lipid Content of Liver: Cholesterol Esters ([9]; end of four-week treatment): ^#61 ± 7 ^ | Lipid Content of Liver: Free Cholesterol ([9]; end of four-week treatment): 21 ± 2 | Lipid Content of Liver: Triglycerides ([9]; end of four-week treatment): 94 ± 11 | plasma leptin levels, in words ([10]; at 14 days, relative to the oral vehicle control group): lower | Plasma Leptin Levels ([10]; day 0, four hour fasting): 4.7 ± 2.3 ng/mL | Plasma Leptin Levels ([10]; day 14, four hour fasting): ^#7.3 ± 3.1^ ng/ml | Plasma Leptin Levels ([10]; day 28, four hour fasting): 6.1 ± 4.6 ng/mL | Plasma Adiponectin Levels ([11]; day 0, four hour fasting): 12.9 ± 2.8 µg/mL | Plasma Adiponectin Levels ([11]; day 14, four hour fasting): 11.3 ± 3.5 µg/mL | Plasma Adiponectin Levels ([11]; day 28, four hour fasting): 11.4 ± 2 µg/mL | plasma HB levels, in words ([12]; at 28 days, compared to the oral vehicle control group): significantly lower | Plasma Ketone Body (HB) levels ([12]; day 0, 4-hour fasting): 0.79 ± 0.19 mM | Plasma Ketone Body (HB) levels ([12]; day 14, 4-hour fasting): 0.23 ± 0.09 mM | Plasma Ketone Body (HB) levels ([12]; day 28, 4-hour fasting): ^#0.38 ± 0.10^ mM

CC(C)OC(=O)C(C)(C)Oc1ccc(C(=O)c2ccc(Cl)cc2)cc1 [Fenofibrate, fenofibrate]
Organ and Tissue Weights: Fat (gonadal fat) [1, 13]: 0.48 ± 0.14 g | Organ and Tissue Weights: Heart [1, 13]: 0.14 ± 0.02 g | Organ and Tissue Weights: Liver [1, 13]: ^#1.77 ± 0.28^ g | Organ and Tissue Weights: Lung [1, 13]: 0.21 ± 0.05 g | liver weight, in words ([1]; relative to its control group): significant increase | Total Plasma Cholesterol ([4]; day 0): 13.6 ± 4.2 mM | Total Plasma Cholesterol ([4]; day 14): *6.5 ± 1.0 mM | Total Plasma Cholesterol ([4]; day 28): *6.2 ± 1.3 mM | Total Plasma Triglyceride Levels ([6]; day 0): 1.6 ± 0.4 mM | Total Plasma Triglyceride Levels ([6]; day 14): ^#*0.7 ± 0.2 mM | Total Plasma Triglyceride Levels ([6]; day 28): ^#*0.7 ± 0.2 mM | Plasma Alanine Amino Transferase Activity [7]: 112.5 ± 10.4 U/L | Lipid Content of Liver: Cholesterol Esters ([9]; end of four-week treatment): 44 ± 6 | Lipid Content of Liver: Free Cholesterol ([9]; end of four-week treatment): 21 ± 2
